Holding throughout (assay): inhibition of tumour cell growth, NCI panel, 48 h
The test system of assay [1] is HCT-116 colon.
Assay [2] concerns EKVX NSCLC.
Assay [3] relates to KM12 colon.
The test system of assay [4] is MOLT-4 leukemia.
Assay [5] deals with OVCAR-5 ovarian.
For assay [6], the system named is A498 renal.
Assay [7] relates to SW-620 colon.
Assay [8] relates to NCI-H23 lung.
Assay [9] has as its system UO-31 renal.
In assay [10] the test system is NCI-H522 lung.

Each structure is given as a SMILES string. “And” between values parts separate entries of the source, which are not always exact repeats. Equal values may be shown once.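 Assay format: 96-well plates, 48-hour exposure. Abbreviation: GI50, concentration required for 50% inhibition of growth. TGI denotes the concentration required for complete inhibition of growth.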

With `c1ccc(-c2csc3c2-n2cccc2C3N2CCCC2)cc1` (stereo unspecified), the TGI in assay [1], in [2], in [3], in assay [4], in assay [5] and in assay [6] was > 100 µM in each case. In addition, the TGI in assay [7], in assay [8], in assay [9] and in assay [10] was > 100 µM throughout.
For the compound `COc1ccccc1N1CCN(CCCCNC(=O)c2ccc([N+](=O)[O-])o2)CC1`, the TGI in [1] was 24.6 µM; in [2], 34.2 µM; in assay [3] it was 20.3 µM; in [4], > 62.5 µM; in [5], 33.1 µM; in assay [6] it was 22.8 µM. Moreover, the TGI in [7] was > 66 µM; in assay [8] it was 15.9 µM; in assay [9], 23.2 µM; in [10], 7.26 µM.
Take `O=[N+]([O-])c1cc(C2(N3CCCCC3)CCCCC2)sc1Br`: the TGI in assay [1] amounted to 35.5 µM; in assay [2] it was 24.6 µM; in assay [3], 20.2 µM; in assay [4], 8.12 µM; in assay [5] it was 38.2 µM; in assay [6], 16.1 µM. The TGI in [7] was found to be 21.3 µM; in [8], 26.5 µM; in assay [9], 24.6 µM; in assay [10] it was 6.78 µM.
As to `CCOC(=O)c1c(N2CCCC2)[nH]c(=O)c(C(c2c(O)c(C(=O)OCC)c(N3CCCC3)[nH]c2=O)C(C)C)c1O`, the TGI in [1], in assay [2], in assay [3], in [4], in [5] and in assay [6] was > 100 µM each time. Besides, the TGI in assay [7], in [8], in assay [9] and in assay [10] was > 100 µM in each case.
`CC(C)C[S+]1C2=C([O-])CC(C)(C)CC2=Nc2ccccc21` (stereo unspecified): the TGI in assay [1], in assay [2], in assay [3], in [4], in [5] and in [6] was > 100 µM each time. Further, the TGI in assay [7], in assay [8], in assay [9] and in assay [10] was > 100 µM in each case.
For the compound `COC(=O)C1OC(O[C@H]2CC[C@]3(C)[C@H]4CC=C5[C@@H]6CC(C)(C)CC[C@]6(C(=O)OC)CC[C@@]5(C)[C@]4(C)CC[C@H]3C2(C)C)C(O)C(O)C1O` (stereo partly specified), the TGI in [1] was 26.2 µM; in [2], 29 µM; in assay [3], 20.7 µM; in [4] it was > 100 µM; in [5] it was 27.7 µM; in assay [6], 34.3 µM. The TGI in assay [7] was 34.6 µM; in [8], 32.4 µM; in assay [9], 33.4 µM; in [10], 35.2 µM.
Turning to `CCOC(=O)Oc1cc2ccsc2c2c1c1ccccc1n2C(=O)OCC`, the TGI in assay [1] is > 100 µM; in [2] it was > 100 µM; in assay [3], > 100 µM; in assay [4], > 100 µM; in assay [5] it was > 100 µM; in [6], 32.6 µM. For the same compound, the TGI was > 100 µM in [7], > 100 µM in [8], 60.8 µM in assay [9] and > 100 µM in assay [10].
Take `O=C1c2ccccc2N=C(c2cc3c(cc2Cl)Sc2nccn2S3(=O)=O)OS(=O)(=O)N1c1ccccc1`: the TGI in assay [1] was 31.5 µM; in [2] it was > 100 µM; in assay [3] it was > 100 µM; in assay [4] it was 32.8 µM; in assay [5], 78.8 µM; in assay [6] it was > 100 µM. Further, the TGI in assay [7] was > 100 µM; in assay [8] it was 66.2 µM; in [9], 91.3 µM; in [10] it was 25.5 µM.
`COc1ccc(/C=C2/N=C(N/N=C\C(O)C(O)C(O)CO)NC2=O)cc1` (stereo unspecified): the TGI in [1], in assay [2], in [3], in assay [4], in assay [5] and in assay [6] was > 100 µM throughout. The TGI in assay [7], in assay [8], in [9] and in assay [10] was > 100 µM throughout. The GI50 in assay [3] was > 100 µM and 26.9 µM; in assay [6], > 100 µM and 32.6 µM; in assay [8], > 100 µM and 42.1 µM; in [10], > 100 µM and 34.2 µM.
With `C/C=C/CC(C(=O)OCC)(N(C)C(=O)OC(C)(C)C)S(=O)(=O)c1ccc(C)cc1` (stereo unspecified), the TGI in assay [1], in assay [2], in assay [3], in [4], in [5] and in assay [6] was > 100 µM each time. For the same compound, the TGI in assay [7], in assay [8], in assay [9] and in assay [10] was > 100 µM throughout.
Consider `O=C(O)c1cc2ccccc2c(Cc2c(O)c(C(=O)O)cc3ccccc23)c1O`, for which the TGI in assay [1], in assay [2], in assay [3], in assay [4], in assay [5] and in assay [6] was > 100 µM each time. Besides, the TGI in [7], in assay [8], in assay [9] and in [10] was > 100 µM in each case.
On to `COc1ccc2[nH]c3cc4c(=O)c5cc(OC)ccc5[nH]c4cc3c(=O)c2c1`, for which the TGI in assay [1], in assay [2], in assay [3], in assay [4], in assay [5] and in [6] was > 100 µM each time. Further, the TGI in [7], in assay [8], in assay [9] and in [10] was > 100 µM in each case.
As to `Cc1ccc(C2(O)c3ccccc3C(=O)N(C)C2(O)c2ccc(C)cc2)cc1` (stereo unspecified), the TGI is > 100 µM in [1]; > 100 µM in [2]; > 100 µM in assay [3]; 35.1 µM in assay [4]; > 100 µM in assay [5]; > 100 µM in assay [6]. Moreover, the TGI in [7], in assay [8], in [9] and in [10] was > 100 µM each time.
With `C/C=C1\CC(C(=O)OCC)CCCCCCC1=O` (stereo unspecified), the TGI in assay [1], in [2], in assay [3], in assay [4], in assay [5] and in assay [6] was > 100 µM throughout. Also, the TGI in assay [7], in assay [8], in assay [9] and in assay [10] was > 100 µM throughout.
Consider `COc1ccc(-c2nc(-c3ccc(OC)cc3)n(-c3ccccc3)n2)cc1`, for which the TGI in assay [1], in [2], in assay [3], in [4], in assay [5] and in assay [6] was > 100 µM in each case. In addition, the TGI in assay [7] was > 100 µM; in [8], > 100 µM; in assay [9], > 100 µM; in assay [10], 62.5 µM.
As to `CN(C(=O)[C@H](NC(=O)OCc1ccccc1)c1ccccc1)C1CCCCC1N1CCCC1` (stereo partly specified), the TGI in [1], in [2], in assay [3], in assay [4], in assay [5] and in [6] was > 100 µM in each case. The TGI in assay [7], in assay [8], in assay [9] and in [10] was > 100 µM throughout.
On to `CC(=O)O[C@@H]1[C@H](OC2CCCCC2(c2ccccc2)c2ccccc2)O[N+]([O-])=CC12CCCCC2` (stereo partly specified), for which the TGI in assay [1] is 32 µM; in [2], 33.7 µM; in assay [3], 31.2 µM; in assay [4], > 100 µM; in assay [5], 29.4 µM; in [6], 29.9 µM. The TGI came to 31.6 µM in assay [7], 22.2 µM in assay [8], 31.3 µM in [9] and 35.2 µM in [10].
For the compound `O=[N+]([O-])c1cc(Br)cc2cc(Cl)cnc12`, the TGI in assay [1], in assay [2], in [3], in assay [4], in assay [5] and in [6] was > 100 µM throughout. Also, the TGI was 32.8 µM in assay [7], > 100 µM in assay [8], > 100 µM in [9] and > 100 µM in assay [10].
Regarding `Cc1cc(C)cc(Nc2nnc3n2S(=O)(=O)c2cc(C)c(Cl)cc2S3)c1`, the TGI in assay [1] is > 100 µM; in assay [2], 52.2 µM; in assay [3], 33.2 µM; in assay [4], > 100 µM; in [5], > 100 µM; in assay [6] it was 29.6 µM. The TGI in [7] was 21.1 µM; in [8], 19.2 µM; in [9], > 100 µM; in [10] it was 22.6 µM.
As for `Cc1cccc2c(N)c3cccc(C(=O)NCC[N+](C)(C)Cc4ccc([N+](=O)[O-])n4C)c3nc12`, the TGI is 68.3 µM in [1]; > 100 µM in assay [2]; 63.4 µM in assay [3]; 25.4 µM in [4]; > 70.8 µM in [5]; > 63.1 µM in assay [6]. The TGI was > 82.2 µM in assay [7], > 65.1 µM in assay [8], 74.7 µM in [9] and 35.8 µM in [10].
On to `Cc1sc2c(c1C)C(=O)c1cccn1-2`, for which the TGI in assay [1], in assay [2], in assay [3], in assay [4], in assay [5] and in assay [6] was > 100 µM each time. In addition, the TGI in [7], in assay [9] and in assay [10] was > 100 µM in each case.
As for `CCO/C(O)=C(/C(=N)N1CCOCC1)C(=O)Nc1cccc(C(F)(F)F)c1`, the TGI in [1], in [2], in assay [3], in [4], in [5] and in [6] was > 100 µM throughout. Moreover, the TGI in assay [7], in assay [8] and in assay [10] was > 100 µM in each case.
For the compound `CCOC(=O)/C=C/n1c2ccccc2c(=O)c2cc(OC)ccc21`, the TGI in [1], in assay [2], in assay [3], in [4], in [5] and in [6] was > 100 µM each time. Moreover, the TGI in [8], in assay [9] and in assay [10] was > 100 µM in each case.
Regarding `CCOC(=O)NN(C(=O)OCC)c1ccc(N=Nc2ccc(OC)cc2)n1C`, the TGI in assay [1] is 34.4 µM; in [2], > 100 µM; in assay [3], 76.9 µM; in [4], > 100 µM; in assay [5], > 100 µM; in [6] it was 56.1 µM. Also, the TGI was > 100 µM in [8], 71 µM in assay [9] and 60.4 µM in assay [10].
For the compound `CN1C(=O)N(C)C2(CCN(CC(CC3OCCO3)c3ccc(F)cc3)CC2)C1=O` (stereo unspecified), the TGI in assay [1], in assay [2], in assay [4], in [5], in assay [6] and in [8] was > 100 µM throughout. The TGI in assay [9] and in [10] was > 100 µM in each case.
On to `Cc1c(C)c2c(c(C)c1OC(=O)CCC(=O)[O-])CCC(C)(CCCCCCCCCCC[P+](c1ccccc1)(c1ccccc1)c1ccccc1)O2` (stereo unspecified), for which the GI50 was 0.222 µM in [2]; 0.177 µM in assay [3]; 0.456 µM in assay [4]; 0.22 µM in assay [5]; 0.0851 µM in [6]; 0.174 µM in assay [7]. The GI50 was 0.159 µM in assay [8], 0.744 µM in assay [9] and 0.153 µM in [10]. The TGI in assay [2] was 1.45 µM; in assay [3], 0.705 µM; in [4] it was 4.7 µM; in [5], 0.836 µM; in assay [6], 0.41 µM; in assay [7] it was 0.842 µM. Also, the TGI amounted to 0.671 µM in [8], 1.42 µM in assay [9] and 1.51 µM in assay [10].
